# Tested on: Phospholipidosis
# Experiment: Literature-mined public compounds from Lowe et al phospholipidosis modelling dataset
row,Compound,Phospholipidosis
1,CNS(=O)(=O)Cc1ccc2[nH]cc(CCN(C)C)c2c1,Negative
2,CN(C)CCN(Cc1cccs1)c1ccccn1,Negative
3,CN1CCN(Cc2nc3cccc4c3c([n+]2[O-])-c2ccccc2-4)CC1,Positive
4,CC1=C(CC(=O)O)c2cc(F)ccc2/C1=C\c1ccc([S+](C)[O-])cc1 (stereo unspecified),Negative
5,CN(C)CCC=C1c2ccccc2CCc2c(Cl)cccc21,Positive
6,OC(CN1CCCCC1)c1ccc(C=C2c3ccccc3-c3ccccc32)cc1 (stereo unspecified),Positive
7,CCCC[C@@H]1CC(=O)[C@]2(O)O[C@@H]3[C@@H](NC)[C@@H](O)[C@@H](NC)[C@H](O)[C@H]3O[C@@H]2O1.O=S(=O)(O)O,Positive
8,CN1CCN(C2=Nc3cc(Cl)ccc3N(C)n3cccc32)CC1,Positive
9,C=C1C[C@@H]1C[C@H](N)C(=O)O,Negative
10,CN(C)CCC=C1c2ccccc2C=Cc2c(Cl)cccc21,Positive
11,CCN(CC)CCn1nc2c3c(c(C)ccc31)Sc1cc(Cl)ccc1-2,Positive
12,CCN(CC)Cc1cc(Nc2ccnc3cc(Cl)ccc23)ccc1O.Cl,Positive
13,CC1(C)OCC(C(CS(=O)(=O)c2ccc(Oc3cccc(OC(F)(F)F)c3)cc2)NC=O)O1 (stereo unspecified),Negative
14,CC1(C)C(=O)NC(=O)N1CC(COc1ccc(-c2ccc(OC(F)(F)F)cc2)cc1)NC=O (stereo unspecified),Negative
15,CC1(C)C(=O)NC(=O)N1CC(N)COc1ccc(-c2ccc(OC(F)(F)F)cc2)cc1 (stereo unspecified),Positive
16,CCCN[C@@H]1[C@H](C)[C@@H](O)[C@](C)(O)[C@@H](CC)OC(=O)[C@H](C)[C@@H](O[C@H]2C[C@@](C)(OC)[C@@H](O)[C@H](C)O2)[C@H](C)[C@@H](O[C@@H]2O[C@H](C)C[C@H](N(C)C)[C@H]2O)[C@](C)(O)C[C@H]1C,Positive
17,CCCNCCc1ccc(NS(=O)(=O)c2ccc(OC(F)(F)F)cc2)cc1,Positive
18,NC[C@H]1Cc2ccc(F)cc2[C@@H](c2ccccc2)O1,Positive
19,Clc1ccccc1CNC[C@H]1CC[C@H](CNCc2ccccc2Cl)CC1,Positive
20,CC1(C)OC[C@H]([C@@H](CS(=O)(=O)c2ccc(Oc3ccc(OC(F)(F)F)cc3)cc2)N(O)C=O)O1,Negative
21,NCCc1cc(O)c(O)c(O)c1,Positive

row,Compound,Phospholipidosis
1,CCC[C@@H](NC(=O)N1C(=O)C(CC)(CC)[C@@H]1Oc1ccc(C(=O)N2CCN(C)CC2)cc1)c1ccc2c(c1)OCO2,Positive
2,CC1(C)NC(=O)N(C[C@@H](COc2ccc(-c3ccc(OC(F)(F)F)cc3)cc2)N(O)C=O)C1=O,Negative
3,C[n+]1ccc(-c2cc[n+](C)cc2)cc1,Positive
4,S=C=Nc1cccc2ccccc12 [1-NAPHTHYLISOTHIOCYANATE],Negative
5,Cc1ccc2cc3c(ccc4ccccc43)c3c2c1CC3 [3-METHYLCHOLANTHRENE],Negative
6,Nc1nc(NC2CC2)c2ncn([C@H]3C=C[C@@H](CO)C3)c2n1 [ABACAVIR],Negative
7,CC(=O)Nc1ccc(O)cc1 [ACETAMINOPHEN],Negative
8,Oc1ncnc2[nH]ncc12 [ALLOPURINOL],Positive
9,NC12CC3CC(CC(C3)C1)C2 [AMANTADINE],Positive
10,Nc1c(Br)cc(Br)cc1CN[C@H]1CC[C@H](O)CC1 [AMBROXOL],Positive
11,NCC[C@H](O)C(=O)N[C@@H]1C[C@H](N)[C@@H](O[C@H]2O[C@H](CN)[C@@H](O)[C@H](O)[C@H]2O)[C@H](O)[C@H]1O[C@H]1O[C@H](CO)[C@@H](O)[C@H](N)[C@H]1O [AMIKACIN],Positive
12,O=C(O)CCCCCCNC1c2ccccc2CCc2ccccc21 [AMINEPTINE],Negative
13,CCCCc1oc2ccccc2c1C(=O)c1cc(I)c(OCCN(CC)CC)c(I)c1 [AMIODARONE],Positive
14,CN(C)CCC=C1c2ccccc2CCc2ccccc21 [AMITRIPTYLINE],Positive
15,CC(=O)Oc1ccccc1C(=O)O [ASPIRIN],Negative
16,CN1[C@@H]2CC[C@H]1C[C@@H](OC(=O)C(CO)c1ccccc1)C2 (stereo partly specified) [ATROPINE],Positive
17,Cl.Cl.O=C(CCN1CCN2CCCC2C1)N1c2ccccc2Sc2ccc(Cl)cc21 (stereo unspecified) [AZACLORZINE HYDROCHLORIDE],Negative
18,CN(C)CCCN(C)[C@H]1CC[C@H]2[C@@H]3CC=C4C[C@@H](O)CC[C@]4(C)[C@H]3CC[C@]12C [AZACOSTEROL],Positive
19,[N-]=[N+]=CC(=O)OC[C@H](N)C(=O)O [AZASERINE],Negative
20,CN1CCN(CCCCN2C(=O)CN(/N=C/c3ccc(-c4ccc(Cl)cc4)o3)C2=O)CC1.Cl.Cl [AZIMILIDE DIHYDROCHLORIDE],Positive
21,CC[C@H]1OC(=O)[C@H](C)[C@@H](O[C@H]2C[C@@](C)(OC)[C@@H](O)[C@H](C)O2)[C@H](C)[C@@H](O[C@@H]2O[C@H](C)C[C@H](N(C)C)[C@H]2O)[C@](C)(O)C[C@@H](C)CN(C)[C@H](C)[C@@H](O)[C@]1(C)O [AZITHROMYCIN],Positive

row,Compound,Phospholipidosis
1,NC(=O)c1ccccc1 [BENZAMIDE],Positive
2,CC(O)(CS(=O)(=O)c1ccc(F)cc1)C(=O)Nc1ccc(C#N)c(C(F)(F)F)c1 (stereo unspecified) [BICALUTAMIDE],Negative
3,C=CC1=C(C)/C(=C/c2[nH]c(Cc3[nH]c(/C=C4\NC(=O)C(C)=C4C=C)c(C)c3CCC(=O)O)c(CCC(=O)O)c2C)NC1=O [BILIRUBIN],Positive
4,FC(F)(F)c1ccc(-c2ccc(OCCN3CCCC3)cc2)cc1 [BOXIDINE],Positive
5,CN(Cc1cc(Br)cc(Br)c1N)C1CCCCC1 [BROMHEXINE],Positive
6,CC(NC(C)(C)C)C(=O)c1cccc(Cl)c1 (stereo unspecified) [BUPROPION],Negative
7,O=C1CC2(CCCC2)CC(=O)N1CCCCN1CCN(c2ncccn2)CC1 [BUSPIRONE],Negative
8,Cn1c(=O)c2c(ncn2C)n(C)c1=O [CAFFEINE],Negative
9,NC(=O)N1c2ccccc2C=Cc2ccccc21 [CARBAMAZEPINE],Negative
10,ClC(Cl)(Cl)Cl [CARBON TETRACHLORIDE],Negative
11,CC(C)(O/N=C(\C(=O)N[C@@H]1C(=O)N2C(C(=O)[O-])=C(C[n+]3ccccc3)CS[C@H]12)c1csc(N)n1)C(=O)O [CEFTAZIDIME],Negative
12,O=C(N[C@H](CO)[C@H](O)c1ccc([N+](=O)[O-])cc1)C(Cl)Cl [CHLORAMPHENICOL],Positive
13,CN1CCN(C(c2ccccc2)c2ccc(Cl)cc2)CC1 (stereo unspecified) [CHLORCYCLIZINE],Positive
14,ClC(Cl)Cl [CHLOROFORM],Negative
15,CC(CCCN(CCCl)CCCl)Nc1ccnc2cc(Cl)ccc12 (stereo unspecified) [CHLOROQUINE MUSTARD],Positive
16,CCN(CC)CCCC(C)Nc1ccnc2cc(Cl)ccc12 (stereo unspecified) [CHLOROQUINE],Positive
17,CC(C)(N)Cc1ccc(Cl)cc1 [CHLORPHENTERMINE],Positive
18,CN(C)CCCN1c2ccccc2Sc2ccc(Cl)cc21 [CHLORPROMAZINE],Positive
19,CN(C)[C@@H]1C(O)=C(C(N)=O)C(=O)[C@@]2(O)C(O)=C3C(=O)c4c(O)ccc(Cl)c4[C@@](C)(O)[C@H]3C[C@@H]12 [CHLORTETRACYCLINE],Negative
20,CN/C(=N/CCSCc1nc[nH]c1C)NC#N [CIMETIDINE],Negative
21,CC(C)(Oc1ccc(C2CC2(Cl)Cl)cc1)C(=O)O (stereo unspecified) [CIPROFIBRATE],Negative

row,Compound,Phospholipidosis
1,CN(C)CCCC1(c2ccc(F)cc2)OCc2cc(C#N)ccc21 (stereo unspecified) [CITALOPRAM],Positive
2,CC[C@H]1OC(=O)[C@H](C)[C@@H](O[C@H]2C[C@@](C)(OC)[C@@H](O)[C@H](C)O2)[C@H](C)[C@@H](O[C@@H]2O[C@H](C)C[C@H](N(C)C)[C@H]2O)[C@](C)(OC)C[C@@H](C)C(=O)[C@H](C)[C@@H](O)[C@]1(C)O [CLARITHROMYCIN],Negative
3,CCC[C@@H]1C[C@@H](C(=O)N[C@@H]([C@H]2O[C@H](SC)[C@H](O)[C@@H](O)[C@H]2O)[C@H](C)Cl)N(C)C1 [CLINDAMYCIN],Positive
4,CC1(C)N=C(N)N=C(N)N1OCc1ccc(Cl)c(Cl)c1 [CLOCIGUANIL],Positive
5,CCOC(=O)C(C)(C)Oc1ccc(Cl)cc1 [CLOFIBRATE],Negative
6,CCOC(=O)NC(C)(C)Cc1ccc(Cl)cc1 [CLOFOREX],Negative
7,N#Cc1ccc(NC(=O)N=C(N)N)cc1Cl [CLOGUANAMIL],Positive
8,CN(C)CCCC1c2ccccc2Nc2ccc(Cl)cc21 (stereo unspecified) [CLOMACRAN],Positive
9,CN(C)CCCN1c2ccccc2CCc2ccc(Cl)cc21 [CLOMIPRAMINE],Positive
10,CN1CCN(C2=Nc3cc(Cl)ccc3Nc3ccccc32)CC1 [CLOZAPINE],Positive
11,COc1cc2c(c(OC)c1OC)-c1ccc(OC)c(=O)cc1[C@@H](NC(C)=O)CC2 [COLCHICINE],Negative
12,CCC(c1ccc(OCCN(CC)CC)cc1)C(CC)c1ccc(OCCN(CC)CC)cc1 (stereo unspecified) [CORALGIL],Positive
13,CN1CCN(C(c2ccccc2)c2ccccc2)CC1 [CYCLIZINE],Positive
14,CC(=O)O[C@]1(C(C)=O)CC[C@H]2[C@@H]3C=C(Cl)C4=CC(=O)[C@@H]5C[C@@H]5[C@]4(C)[C@H]3CC[C@@]21C [CYPROTERONE ACETATE],Negative
15,O=C1CN(/N=C/c2ccc(-c3ccc([N+](=O)[O-])cc3)o2)C(O)=N1 [DANTROLENE],Negative
16,CC(=O)N(O)CCCCCNC(=O)CCC(=O)N(O)CCCCCNC(=O)CCC(=O)N(O)CCCCCN [DEFEROXAMINE],Negative
17,CN(C)[C@@H]1C(O)=C(C(N)=O)C(=O)[C@@]2(O)C(O)=C3C(=O)c4c(O)ccc(Cl)c4[C@@H](O)[C@H]3C[C@@H]12 [DEMECLOCYCLINE],Negative
18,CNCCCN1c2ccccc2CCc2ccccc21 [DESIPRAMINE],Positive
